These results are taken from patent publication US9776962B2, “Aromatic compounds with GPR40 agonistic activity” (TAKEDA PHARMACEUTICAL COMPANY LIMITED, priority 2013, dated 2017).

Test [1] concerns N-STZ-1.5 rats. As to the kind of experiment: Oral glucose tolerance test using N-STZ-1.5 rats (glucose-lowering effects and insulinotropic action). The class given is in vivo, rat. Particulars: 3 mg/kg body weight oral, 1 hr before glucose loading 1.5 g/kg, male N-STZ-1.5 rats, n=6; for blood glucose decrease rate (%): glucose AUC (0-60 min) vs control group; for insulin increase rate (fold): insulin AUC (0-60 min) test group/control group. The protocol: The glucose-lowering effects and insulinotropic action of the compound of the present invention were evaluated by an oral glucose tolerance test using N-STZ-1.5 rats.
Streptozotocin (120 mg/kg) was subcutaneously administered to 1 or 2 days-old male Wistar Kyoto rats to prepare type 2 diabetic model N-STZ-1.5 rats. The rats were allowed free access to standard laboratory chow diet (CE-2, CLEA Japan, Inc.).
Male N-STZ-1.5 rats (25-week-old) were fasted for 15-17 hr, and the body weight was measured. Heparin (Ajinomoto Co., Inc.) as an anticoagulant and aprotinin (SIGMA) as a protease inhibitor were added, blood samples were collected from tail vein. The blood was centrifuged, the concentrations of glucose and triglyceride in plasma were measured, and the rats were divided into each group (n=6) based on these parameters. A 0.5% methylcellulose (control group) or a 0.5% methylcellulose suspension containing a test compound (3 mg/kg body weight) was orally administered to the rats at 5 ml/kg and, 1 hr after the administration, glucose solution (Otsuka Pharmaceutical Co., Ltd.) was orally administered at 1.5 g/7.5 ml/kg. Immediately before (0 min value) and 10, 30 and 60 min after the glucose loading, blood was drawn from the tail vein, centrifuged, and the concentrations of glucose and insulin in plasma were measured. The glucose and triglyceride concentrations were measured by automatic analysis apparatus 7180 (Hitachi, Ltd.), and the insulin concentration was measured by rat insulin radioimmunoassay kit (MIllipore). The area under glucose curve (AUC) and insulin AUC were calculated using the following formulas, and the blood glucose decrease rate (%) and insulin increase rate (fold) were calculated by the following formulas from the obtained AUCs. A statistical significant difference from the control group was analyzed by the Dunnett's test or Steel's test.
Glucose AUC (0-60 Min): {(0 min glucose in plasma)+(10 min glucose in plasma)}×10/2+{(10 min glucose in plasma)+(30 min glucose in plasma)}×20/2+{(30 min glucose in plasma)+(60 min glucose in plasma)}×30/2 insulin AUC (0-60 Min): {(0 min insulin in plasma)+(10 min insulin in plasma)}×10/2+{(10 min insulin in plasma)+(30 min insulin in plasma)}×20/2+{(30 min insulin in plasma)+(60 min insulin in plasma)}×30/2 Blood Glucose Decrease Rate (%): [(test compound administration group glucose AUC/control group glucose AUC)−1]×100 insulin Increase Rate (Fold):
test compound administration group insulin AUC/control group insulin AUC

The target of test [2] is T1, human GPR40 (Homo sapiens, UniProt O14842).
T1 construct: expressed in transfected cells
Nature of the test: Evaluation of human GPR40 agonist activity with increase in intracellular Ca2+ concentration as an index (FLIPR). The class given is cell-based. Particulars: test compound 1 μM; CHO(dhfr−) cells stably expressing human GPR40; 100% = 10 μM compound of Example 153, 0% = DMSO. The gist of the method: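 CHO(dhfr−) cells stably expressing full-length human GPR40 were loaded with Ca2+ probe for 1 h at room temperature, then given test compound at 1 μM final. Fluorescence was followed on FLIPR, with activity scaled to a reference agonist at 10 μM (100%) and DMSO (0%).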

Marks after values point to notes of the source that are not given here.

T1 sequence (O14842 whole entry): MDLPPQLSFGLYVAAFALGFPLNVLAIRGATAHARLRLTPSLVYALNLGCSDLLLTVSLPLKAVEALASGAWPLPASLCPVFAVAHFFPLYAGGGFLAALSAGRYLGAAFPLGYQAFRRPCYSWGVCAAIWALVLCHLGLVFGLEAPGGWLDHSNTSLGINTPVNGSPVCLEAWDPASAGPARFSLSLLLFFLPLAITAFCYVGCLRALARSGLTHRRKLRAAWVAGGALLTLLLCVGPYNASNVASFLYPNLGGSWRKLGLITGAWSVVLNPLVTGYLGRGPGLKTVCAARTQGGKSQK

On to `COc1ccc(C(=O)N(CC(C)(C)C)c2ncccn2)c(N2CCC(COc3cc(C(CC(=O)O)C4CC4)ccn3)CC2)c1` (stereo not shown) [Example 184, 3-cyclopropyl-3-(2-((1-(2-((2,2-dimethylpropyl)(pyrimidin-2-yl)carbamoyl)-5-methoxyphenyl)piperidin-4-yl)methoxy)pyridin-4-yl)propanoic acid], for which, in test [1], the “blood glucose decrease rate (%)” value is reported as 27.9^$ % and the “insulin increase rate (fold)” value turned out to be 1.4 fold.

`COc1ccc(C(=O)N(CC(C)(C)F)c2cc(C)ccn2)c(N2CCC(COc3cc(C(CC(=O)O)C4CC4)ccn3)CC2)c1` (stereo not shown) [Example 185, 3-cyclopropyl-3-(2-((1-(2-((2-fluoro-2-methylpropyl)(4-methylpyridin-2-yl)carbamoyl)-5-methoxyphenyl)piperidin-4-yl)methoxy)pyridin-4-yl)propanoic acid]: in test [1], the “blood glucose decrease rate (%)” value is listed as 30.8^$ % and the “insulin increase rate (fold)” value amounted to 1.6 fold.

Take `COc1ccc(C(=O)N(CC(C)(C)C)c2cccc(C)n2)c(N2CCC(COc3cc([C@@H](CC(=O)O)C4CC4)ccn3)CC2)c1` [Example 245, (3S)-3-cyclopropyl-3-(2-((1-(2-((2,2-dimethylpropyl)(6-methylpyridin-2-yl)carbamoyl)-5-methoxyphenyl)piperidin-4-yl)methoxy)pyridin-4-yl)propanoic acid]: in test [2], the “Activity (human GPR40 agonist activity)” value is given as 102%. In test [1], the “blood glucose decrease rate (%)” value is reported as 44.5^$ % and the “insulin increase rate (fold)” value is reported as 2.1** fold.

In turn, `COc1ccc(C(=O)N(CC(C)(C)C)c2nc(C)cc(C)n2)c(N2CCC(COc3cc([C@@H](CC(=O)O)C4CC4)ccn3)CC2)c1` [Example 246, (3S)-3-cyclopropyl-3-(2-((1-(2-((2,2-dimethylpropyl)(4,6-dimethylpyrimidin-2-yl)carbamoyl)-5-methoxyphenyl)piperidin-4-yl)methoxy)pyridin-4-yl)propanoic acid] returned an activation at 1 µM in test [2] of 103%. For the same compound, in test [1], the “blood glucose decrease rate (%)” value is 42.7^$ % and the “insulin increase rate (fold)” value is 2.1** fold.

Take `COc1ccc(C(=O)N(CC(C)(C)C)c2ccccn2)c(N2CCC(COc3cc([C@@H](CC(=O)O)C4CC4)ccn3)CC2)c1` [Example 247, (3S)-3-cyclopropyl-3-(2-((1-(2-((2,2-dimethylpropyl)(pyridin-2-yl)carbamoyl)-5-methoxyphenyl)piperidin-4-yl)methoxy)pyridin-4-yl)propanoic acid]: the activation at 1 µM in test [2] was found to be 102%. In addition, in test [1], the “blood glucose decrease rate (%)” value was 41.5^$ % and the “insulin increase rate (fold)” value is 2.0** fold.

For the compound `COc1ccc(C(=O)N(CC(C)(C)C)c2cccc(C)n2)c(N2CCC(COc3cc(C(CC(=O)O)C4CC4)c(F)cn3)CC2)c1` (stereo not shown) [Example 274, 3-cyclopropyl-3-(2-((1-(2-((2,2-dimethylpropyl)-(6-methylpyridin-2-yl)carbamoyl)-5-methoxyphenyl)piperidin-4-yl)methoxy)-5-fluoropyridin-4-yl)propanoic acid], in test [2], the activation at 1 µM is 104%.

As for `COc1ccc(C(=O)N(CC(C)(C)C)c2cccc(C)n2)c(N2CCC(COc3cccc(C(CC(=O)O)C4CC4)c3F)CC2)c1` (stereo not shown) [Example 275, 3-cyclopropyl-3-(3-((1-(2-((2-dimethylpropyl)-(6-methylpyridin-2-yl)-carbamoyl)-5-methoxy-phenyl)piperidin-4-yl)methoxy)-2-fluoro-phenyl)propanoic acid], the activation at 1 µM in test [2] is 99%.

In test [2], `COCC(CC(=O)O)c1cccc(OCC2CCN(c3cc(OC)ccc3C(=O)N(CC(C)(C)C)c3cccc(C)n3)CC2)c1` (stereo not shown) [Example 276, 3-(3-((1-(2-((2,2-dimethylpropyl) (6-methylpyridin-2-yl)carbamoyl)-5-methoxyphenyl)piperidin-4-yl)methoxy)phenyl)-4-methoxybutanoic acid] came in with an activation at 1 µM of 96%.

Turning to `COc1ccc(C(=O)N(CC(C)(C)C)c2cccc(C)n2)c(N2CCC(COc3cccc(C(C)(C)CC(=O)O)c3)CC2)c1` [Example 277, 3-(3-((1-(2-((2,2-dimethylpropyl) (6-methylpyridin-2-yl)carbamoyl)-5-methoxyphenyl)piperidin-4-yl)methoxy)phenyl)-3-methylbutanoic acid], the activation at 1 µM in test [2] worked out at 110%.

Consider `COc1ccc(C(=O)N(CC(C)(C)C)c2cccc(C)n2)c(N2CCC(COc3cccc(C4(CC(=O)O)COC4)c3)CC2)c1` [Example 278, (3-(3-((1-(2-((2,2-dimethylpropyl) (6-methylpyridin-2-yl)carbamoyl)-5-methoxyphenyl)piperidin-4-yl)methoxy)phenyl)oxetan-3-yl)acetic acid], for which the activation at 1 µM in test [2] came out at 78%.

Turning to `COc1ccc(C(=O)N(CC(C)(C)C)c2ccccn2)c(N2CC[C@H](COc3cccc(C(CC(=O)O)C4CC4)c3)[C@@H](C)C2)c1` (stereo partly drawn) [Example 279, (3S)-cyclopropyl-3-(3-(((3R,4S)-1-(2-((2,2-dimethylpropyl) (pyridin-2-yl)carbamoyl)-5-methoxyphenyl)-3-methylpiperidin-4-yl)methoxy)phenyl)-propanoic acid], in test [2], the activation at 1 µM turned out to be 92%.

`COc1ccc(C(=O)N(CC(C)(C)C)c2ccccn2)c(N2CC[C@@H](COc3cccc(C(CC(=O)O)C4CC4)c3)[C@@H](C)C2)c1` (stereo partly drawn) [Example 280, (3S)-cyclopropyl-3-(3-(((3R,4R)-1-(2-((2,2-dimethylpropyl) (pyridin-2-yl)carbamoyl)-5-methoxyphenyl)-3-methylpiperidin-4-yl)methoxy)phenyl)-propanoic acid]: the activation at 1 µM in test [2] turned out to be 6%.

Compound `COc1ccc(C(=O)N(CC(C)(C)C)c2ccccn2)c(N2CCC(COc3cccc(C(CC(=O)O)C4CC4)c3)C(F)(F)C2)c1` [Example 281, (3S)-cyclopropyl-3-(3-((1-(2-((2,2-dimethylpropyl)-(pyridin-2-yl)carbamoyl)-5-methoxyphenyl)-3,3-difluoropiperidin-4-yl)methoxy)phenyl)-propanoic acid] yielded an activation at 1 µM in test [2] of 92%.

On to `COc1cc(N2CCC(COc3cc(C(CC(=O)O)C4CC4)ccn3)CC2)c(C(=O)N(CC(C)(C)C)c2cc(C)cc(C)n2)cn1` (stereo not shown) [Example 284, 3-cyclopropyl-3-(2-((1-(5-((2,2-dimethylpropyl) (4,6-dimethylpyridin-2-yl)-carbamoyl)-2-methoxypyridin-4-yl)-piperidin-4-yl)-methoxy)pyridin-4-yl)propanoic acid], for which, in test [2], the activation at 1 µM came to 103%.

In turn, `COc1cc(N2CCC(COc3cc(C(CC(=O)O)C4CC4)ccn3)CC2)c(C(=O)N(CC2CC2)c2cc(C)cc(C)n2)cn1` (stereo not shown) [Example 285, 3-cyclopropyl-3-(2-((1-(5-((cyclopropylmethyl) (4,6-dimethylpyridin-2-yl)carbamoyl)-2-methoxypyridin-4-yl)piperidin-4-yl)methoxy)pyridin-4-yl)propanoic acid] showed an activation at 1 µM in test [2] of 99%.

`COc1cc(N2CCC(COc3cc(C(CC(=O)O)C4CC4)ccn3)CC2)c(C(=O)N(CC(C)(C)C)c2cc(C)nc(C)n2)cn1` (stereo not shown) [Example 286, 3-cyclopropyl-3-(2-((1-(5-((2,2-dimethylpropyl) (2,6-dimethylpyrimidin-4-yl)carbamoyl)-2-methoxypyridin-4-yl)piperidin-4-yl)methoxy)pyridin-4-yl)propanoic acid] came in with an activation at 1 µM in test [2] of 107%.

In the case of `COc1ncc(C(=O)N(CC(C)(C)C)c2cccc(C)n2)c(N2CCC(COc3cc(C(CC(=O)O)C4CC4)ccn3)CC2)n1` (stereo not shown) [Example 287, 3-cyclopropyl-3-(2-((1-(5-((2,2-dimethylpropyl) (6-methylpyridin-2-yl)carbamoyl)-2-methoxypyrimidin-4-yl)piperidin-4-yl)methoxy)pyridin-4-yl)propanoic acid], in test [2], the activation at 1 µM came out at 82%.
